This passage reports IC50 results from ChEMBL document CHEMBL3351855, “Synthesis and biological evaluation of (-)-6-O-desmethylcryptopleurine and analogs” (Bioorg Med Chem Lett, 2015).

Common to all, as to assay type: functional, cell-based
Experiment [1] in a line: Antiproliferative activity against human HCT116 cells after 72 hrs by ATPlite assay. The conditions noted are these: HCT-116, 72 h. For orientation: ATP-based viability assays read luminescence as a measure of living cells.
The nature of experiment [2]: Antiproliferative activity against human NAMALWA cells after 72 hrs by ATPlite assay. The conditions noted are these: NAMALVA.
Experiment [3] concerns A549. The experiment in a line: Antiproliferative activity against human A549 cells after 72 hrs by ATPlite assay. The conditions noted are these: A549, 72 h.
Experiment [4] concerns A-375. As to the kind of experiment: Antiproliferative activity against human A375 cells after 72 hrs by ATPlite assay. The conditions noted are these: A-375, 72 h.

As a reminder, the IC50 is the concentration that inhibits the measured activity by half. Regarding `COc1cc2c3c(c4ccc(O)cc4c2cc1OC)CN1CCCC[C@@H]1C3`, the half-maximal inhibitory concentration (IC50) in experiment [1] turned out to be 1.4 nM; in experiment [2], 4.1 nM; in experiment [3], 2.5 nM; in experiment [4] it was 1.6 nM.

With `COc1cc2c3c(c4ccc(O)cc4c2cc1OC)CN1CCCC[C@@H]1C3=O`, the 50% inhibitory concentration (IC50) was determined as 21 nM in experiment [1], 60 nM in experiment [2], 65 nM in experiment [3] and 56 nM in experiment [4].

As for `COc1cc2c3c(c4ccc(O)cc4c2cc1OC)CN1CCCC[C@@H]1[C@@H]3O`, the IC50 in experiment [1] worked out at 0.3 nM; in experiment [2], 1.1 nM; in experiment [3] it was 1.4 nM; in experiment [4] it was 0.3 nM.

In the case of `COc1cc2c3c(c4ccc(O)cc4c2cc1OC)CN1CCC[C@@H]1C3`, in experiment [3], half-maximal inhibition (IC50) required 1 nM.

Turning to `COc1ccc2c3c(c4cc(OC)c(OC)cc4c2c1)C[C@H]1CCCN1C3` [(-)-ANTOFINE], the midpoint of inhibition in experiment [3], the IC50, lay at 10 nM.

On to `COc1ccc2c3c(c4cc(OC)c(OC)cc4c2c1)C[C@H]1CCCCN1C3` [CRYPTOPLEURINE], for which the IC50 in experiment [1] came out at 0.7 nM; in experiment [2], 2.6 nM; in experiment [4], 1.2 nM.
